According to patent publication US11174240B2, “Crystalline solid compound of 3-phenyl-4-propyl-1-(pyridin-2-yl)-1H-pyrazol-5-ol hydrochloride” (Aptabio Therapeutics Inc., priority 2017, dated 2021):

How the values were obtained:
Type in all cases: physicochemical
[1] = Hygroscopicity test (Karl-Fischer water content under accelerated storage); details: for Water content (%) 1 day: 1 day at 40° C. / 75% relative humidity; for Water content (%) 1 day / Water content (%) 3 days / Water content (%) 7 days: Petri dish without sealing; for Water content (%) 3 days: 3 days at 40° C. / 75% relative humidity; for Water content (%) 7 days: 7 days at 40° C. / 75% relative humidity; for Water content (%) Initial: before storage at 40° C. / 75% relative humidity
Protocol: (§1) Hygroscopicity comparison experiments were conducted on each of the crystalline free base compound (Example 1), the crystalline hydrochloride compound (Example 2), the non-crystalline free base compound (Comparative Example 1), the non-crystalline hydrochloride compound (Comparative Example 2) and various crystalline acid addition compounds (Comparative Example 3).
The test compounds were exposed in a Petri dish under accelerated storage conditions at a temperature of 40° C. and a relative humidity of 75% for 7 days without sealing. The water content of each test compound was measured using a Karl-Fischer moisture meter. Table 2 summarizes the water content (%) of each test compound measured during the storage period.

[2] = Stability comparison test (long-term storage, HPLC of decomposition product of Formula 3 and total impurities); details: for Concentration of decomposition product of Formula 3 (%) 6 months / Total impurity concentration (%) 6 months: 6 months at 25° C. / 60% relative humidity
Protocol: as §1, with “Stability” for “Hygroscopicity”
The test compound was stored in a chamber for stability measurement under long-term storage conditions at a temperature of 25° C. and a relative humidity of 60% for 6 months. For storage, each test compound was placed in a double polyethylene bag, and the polyethylene bag was filled with a silica gel pouch and was then placed in a small paper box (fiber drum).
The following Table 3 summarizes the results of the measurement of the concentration of the degradation product of Formula 3 and the total impurity concentration by HPLC analysis after storage under long-term storage conditions for 6 months.
[Analytical Conditions of Liquid Chromatography (HPLC)]
Column temperature: 35° C.
Detector: UV Detector (246 nm)
Gradient condition of mobile phase: […]

[3] = Evaluation of polymorphic transition (PXRD and DSC after storage); details: for DSC endothermic temperature 4 weeks: 4 weeks at 40° C. / 75% relative humidity in polyethylene bag; for DSC endothermic temperature Initial: initial state; for Comparison and determination results (polymorphic transition): initial vs 4 weeks at 40° C. / 75% relative humidity, PXRD and DSC
Protocol: In order to determine whether or not the polymorphic transition phenomenon occurs under the storage conditions in the crystalline free base compound (Example 1) and the crystalline hydrochloride compound (Example 2), the results of PXRD analysis in the initial state and the possibility of polymorphic transition over time were examined.
Specifically, the test compound was stored in a polyethylene bag in a chamber for stability measurement at a temperature of 40° C. and a relative humidity of 75% for 4 weeks. Also, PXRD and DSC analysis results, measured at the initial state and after 4 weeks, were compared.

Row | Structure (SMILES) | Water content (%) 1 day [1] [%] | Water content (%) 3 days [1] [%] | Water content (%) 7 days [1] [%] | Water content (%) Initial [1] [%] | Concentration of decomposition product of Formula 3 (%) 6 months [2] [%] | Total impurity concentration (%) 6 months [2] [%] | Concentration of decomposition product of Formula 3 (%) Initial [2] [%] | Total impurity concentration (%) Initial [2] [%] | Water content (%) 1 day ([1]; hydrochloride) [%] | Water content (%) 3 days ([1]; hydrochloride) [%] | Water content (%) 7 days ([1]; hydrochloride) [%] | Water content (%) Initial ([1]; hydrochloride) [%] | Concentration of decomposition product of Formula 3 (%) 6 months ([2]; hydrochloride) [%] | Total impurity concentration (%) 6 months ([2]; hydrochloride) [%] | Concentration of decomposition product of Formula 3 (%) Initial ([2]; hydrochloride) [%] | Total impurity concentration (%) Initial ([2]; hydrochloride) [%] | DSC endothermic temperature 4 weeks [3] [°C] | DSC endothermic temperature Initial [3] [°C] | Comparison and determination results (polymorphic transition) ([3]; hydrochloride) | Comparison and determination results (polymorphic transition) [3]
1 | CCCc1c(-c2ccccc2)nn(-c2ccccn2)c1O [Succinate, 3-phenyl-4-propyl-1-(pyridin-2-yl)-1H-pyrazol-5-ol] | 0.42 | 0.44 | 0.48 | 0.37 | 0.38 | 1.65 | 0.09 | 0.48 | – | – | – | – | – | – | – | – | – | – | – | –
2 | CCCc1c(-c2ccccc2)nn(-c2ccccn2)c1O [Hemi-1,5-naphthalene disulfonate, 3-phenyl-4-propyl-1-(pyridin-2-yl)-1H-pyrazol-5-ol] | 0.12 | 0.13 | 0.15 | 0.12 | 0.35 | 1.24 | 0.08 | 0.52 | – | – | – | – | – | – | – | – | – | – | – | –
3 | CCCc1c(-c2ccccc2)nn(-c2ccccn2)c1O [L-malate, 3-phenyl-4-propyl-1-(pyridin-2-yl)-1H-pyrazol-5-ol] | 1.58 | 1.75 | 2.80 | 0.45 | 0.78 | 3.27 | 0.12 | 0.58 | – | – | – | – | – | – | – | – | – | – | – | –
4 | CCCc1c(-c2ccccc2)nn(-c2ccccn2)c1O [Example 1, 3-phenyl-4-propyl-1-(pyridin-2-yl)-1H-pyrazol-5-ol] | 0.29 | 0.32 | 0.34 | 0.26 | 0.09 | 0.47 | 0.05 | 0.32 | – | – | – | – | – | – | – | – | 72.8 | 73.54 | – | no polymorphic transition occurred
5 | CCCc1c(-c2ccccc2)nn(-c2ccccn2)c1O [Comparative Example 1, 3-phenyl-4-propyl-1-(pyridin-2-yl)-1H-pyrazol-5-ol] | 1.30 | 2.27 | 2.95 | 0.33 | 0.65 | 7.58 | 0.06 | 0.26 | – | – | – | – | – | – | – | – | – | – | – | –

Results, then the compound that gave them:

Row | Water content (%) 1 day [1] [%] | Water content (%) 3 days [1] [%] | Water content (%) 7 days [1] [%] | Water content (%) Initial [1] [%] | Concentration of decomposition product of Formula 3 (%) 6 months [2] [%] | Total impurity concentration (%) 6 months [2] [%] | Concentration of decomposition product of Formula 3 (%) Initial [2] [%] | Total impurity concentration (%) Initial [2] [%] | Water content (%) 1 day ([1]; hydrochloride) [%] | Water content (%) 3 days ([1]; hydrochloride) [%] | Water content (%) 7 days ([1]; hydrochloride) [%] | Water content (%) Initial ([1]; hydrochloride) [%] | Concentration of decomposition product of Formula 3 (%) 6 months ([2]; hydrochloride) [%] | Total impurity concentration (%) 6 months ([2]; hydrochloride) [%] | Concentration of decomposition product of Formula 3 (%) Initial ([2]; hydrochloride) [%] | Total impurity concentration (%) Initial ([2]; hydrochloride) [%] | DSC endothermic temperature 4 weeks [3] [°C] | DSC endothermic temperature Initial [3] [°C] | Comparison and determination results (polymorphic transition) ([3]; hydrochloride) | Comparison and determination results (polymorphic transition) [3] | Structure (SMILES)
6 | – | – | – | – | – | – | – | – | 0.31 | 0.37 | 0.39 | 0.25 | 0.08 | 0.45 | 0.03 | 0.28 | 133.4 | 134.25 | no polymorphic transition occurred | – | CCCc1c(-c2ccccc2)nn(-c2ccccn2)c1O.Cl [Example 2, 3-phenyl-4-propyl-1-(pyridin-2-yl)-1H-pyrazol-5-ol hydrochloride]
7 | – | – | – | – | – | – | – | – | 1.98 | 3.54 | 7.52 | 0.31 | 0.92 | 5.87 | 0.05 | 0.35 | – | – | – | – | CCCc1c(-c2ccccc2)nn(-c2ccccn2)c1O.Cl [Comparative Example 2, 3-phenyl-4-propyl-1-(pyridin-2-yl)-1H-pyrazol-5-ol hydrochloride]
8 | 0.34 | 0.34 | 0.38 | 0.33 | 0.54 | 1.85 | 0.10 | 0.40 | – | – | – | – | – | – | – | – | – | – | – | – | CCCc1c(-c2ccccc2)nn(-c2ccccn2)c1O [L-tartrate, 3-phenyl-4-propyl-1-(pyridin-2-yl)-1H-pyrazol-5-ol]
